Consider 30 molecules from patent US9624209B2, “Substituted phenylureas and phenylamides as vanilloid receptor ligands” (Gruenenthal GmbH, priority 2009, dated 2017).

The target in the assay is T1, vanilloid receptor 1 (VR1/TRPV1 receptor) (Homo sapiens, UniProt Q8NER1).
T1 construct: expressed in transfected cells; host or cells: CHO K1 cells (ECACC), stably transfected
In words: VR1/TRPV1 receptor affinity, capsaicin stimulus (human). Conditions: for Ki: Tables 8-12, read-out: (f) Ki (human being) [nM] Cap; for inhibition at 5 µM: Tables 8-12, read-out: (f) Ki (human being) [nM] Cap: inhibition (as a percentage). The assay is classed as cell-based, human being.

T1 sequence (Q8NER1 whole entry): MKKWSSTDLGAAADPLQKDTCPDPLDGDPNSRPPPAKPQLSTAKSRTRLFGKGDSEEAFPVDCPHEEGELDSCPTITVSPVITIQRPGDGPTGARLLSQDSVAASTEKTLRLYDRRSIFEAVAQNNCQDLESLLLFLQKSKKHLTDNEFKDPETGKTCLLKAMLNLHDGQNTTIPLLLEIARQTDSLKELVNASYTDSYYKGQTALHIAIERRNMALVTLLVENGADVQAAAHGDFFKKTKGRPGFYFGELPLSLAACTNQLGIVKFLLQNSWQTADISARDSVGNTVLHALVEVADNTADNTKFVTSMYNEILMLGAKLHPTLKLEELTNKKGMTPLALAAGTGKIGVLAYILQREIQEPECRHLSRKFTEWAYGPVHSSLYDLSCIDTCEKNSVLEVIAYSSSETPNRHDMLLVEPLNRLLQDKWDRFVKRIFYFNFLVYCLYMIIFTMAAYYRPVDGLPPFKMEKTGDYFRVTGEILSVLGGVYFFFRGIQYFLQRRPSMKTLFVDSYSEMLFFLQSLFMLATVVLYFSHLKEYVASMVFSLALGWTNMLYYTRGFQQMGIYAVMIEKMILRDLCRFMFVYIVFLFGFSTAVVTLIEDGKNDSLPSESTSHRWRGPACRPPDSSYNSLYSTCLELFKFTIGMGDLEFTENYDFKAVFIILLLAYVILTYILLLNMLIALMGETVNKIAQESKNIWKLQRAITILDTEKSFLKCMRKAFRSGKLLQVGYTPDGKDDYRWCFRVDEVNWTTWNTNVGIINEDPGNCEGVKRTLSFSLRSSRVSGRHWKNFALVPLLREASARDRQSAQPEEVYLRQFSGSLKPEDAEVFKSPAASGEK

For `CC(C(=O)NCc1cc(C(C)(C)C)nn1-c1ccc(Cl)cc1)c1ccc(CNS(C)(=O)=O)c(F)c1` (stereo not drawn) [Example B20, N-[[5-tert-Butyl-2-(4-chlorophenyl)-2H-pyrazol-3-yl]-methyl]-2-[3-fluoro-4-(methanesulfonamido-methyl)-phenyl]-propionamide], the Ki is 52 nM.

On to `CC(C(=O)NCc1cc(C(C)(C)C)nn1-c1ccc(F)cc1)c1ccc(CNS(C)(=O)=O)c(F)c1` (stereo not drawn) [Example B21, N-[[5-tert-Butyl-2-(4-fluorophenyl)-2H-pyrazol-3-yl]-methyl]-2-[3-fluoro-4-(methanesulfonamido-methyl)-phenyl]-propionamide], for which the Ki was found to be 30 nM.

For `CC(C(=O)NCc1cc(C(F)(F)F)nn1-c1cccc(Cl)c1)c1ccc(CNS(C)(=O)=O)c(Cl)c1` (stereo not drawn) [Example B22, 2-[3-Chloro-4-(methanesulfonamido-methyl)-phenyl]-N-[[2-(3-chlorophenyl)-5-(trifluoromethyl)-2H-pyrazol-3-yl]-methyl]-propionamide], the inhibitory constant (Ki) is 3 nM.

With `CS(=O)(=O)NCc1ccc(CC(=O)NCc2cc(C(F)(F)F)nn2-c2cccc(Cl)c2)cc1F` [Example B23, N-[[2-(3-Chlorophenyl)-5-(trifluoromethyl)-2H-pyrazol-3-yl]-methyl]-2-[3-fluoro-4-(methanesulfonamido-methyl)-phenyl]-acetamide], the Ki was found to be 13 nM.

On to `CCNCc1ccc(NC(=O)NCc2cc(C(F)(F)F)nn2-c2cccc(Cl)c2)cc1F` [Example B24, 1-[[2-(3-Chlorophenyl)-5-(trifluoromethyl)-2H-pyrazol-3-yl]-methyl]-3-[4-(ethylamino-methyl)-3-fluoro-phenyl]-urea], for which the Ki amounted to 55 nM.

For the molecule `CCNCc1ccc(NC(=O)NCc2cc(C(C)(C)C)nn2-c2cccc(Cl)c2)cc1F` [Example B25, 1-[[5-tert-Butyl-2-(3-chlorophenyl)-2H-pyrazol-3-yl]-methyl]-3-[4-(ethylamino-methyl)-3-fluoro-phenyl]-urea], the inhibition constant Ki was 45 nM.

As for `CC(C)(C)c1cc(CNC(=O)Cc2ccc(CNS(C)(=O)=O)c(F)c2)n(-c2cccc(Cl)c2)n1` [Example B26, N-[[5-tert-Butyl-2-(3-chlorophenyl)-2H-pyrazol-3-yl]-methyl]-2-[3-fluoro-4-(methanesulfonamido-methyl)-phenyl]-acetamide], the inhibitory constant (Ki) turned out to be 12 nM.

For `CS(=O)(=O)NCc1c(F)cc(NC(=O)NCc2cc(C(F)(F)F)nn2-c2cccc(Cl)c2)cc1F` [Example B27, 1-[[2-(3-Chlorophenyl)-5-(trifluoromethyl)-2H-pyrazol-3-yl]-methyl]-3-[3,5-difluoro-4-(methanesulfonamido-methyl)-phenyl]-urea], the inhibition constant (Ki) was found to be 8 nM.

Take `CC(C)(C)c1cc(CNC(=O)Nc2ccc(CNS(C)(=O)=O)cc2)n(-c2cccc(Cl)c2)n1` [Example B28, 1-[[5-tert-Butyl-2-(3-chlorophenyl)-2H-pyrazol-3-yl]-methyl]-3-[4-(methanesulfonamido-methyl)-phenyl]-urea]: the Ki is 11 nM.

Turning to `CC(C(=O)NCc1cc(C(F)(F)F)nn1-c1cccc(Cl)c1)c1ccc(CN(C)S(C)(=O)=O)c(F)c1` (stereo not drawn) [Example B29, N-[[2-(3-Chlorophenyl)-5-(trifluoromethyl)-2H-pyrazol-3-yl]-methyl]-2-[3-fluoro-4-[(methyl-methylsulfonyl-amino)-methyl]-phenyl]-propionamide], the inhibitory constant (Ki) was found to be 59 nM.

As for `CC(C(=O)NCc1cc(C(C)(C)C)nn1-c1cccc(Cl)c1)c1ccc(CN(C)S(C)(=O)=O)c(F)c1` (stereo not drawn) [Example B30, N-[[5-tert-Butyl-2-(3-chlorophenyl)-2H-pyrazol-3-yl]-methyl]-2-[3-fluoro-4-[(methyl-methylsulfonyl-amino)-methyl]-phenyl]-propionamide], the Ki was determined as 39 nM.

`CC(C)(C)c1cc(CNC(=O)Nc2ccc(CNS(C)(=O)=O)c(F)c2)n(-c2cccc(Cl)c2)n1` [Example B31, 1-[[5-tert-Butyl-2-(3-chlorophenyl)-2H-pyrazol-3-yl]-methyl]-3-[3-fluoro-4-(methanesulfonamido-methyl)-phenyl]-urea]: the Ki turned out to be 9 nM.

Turning to `CC(C)(C)c1cc(CNC(=O)Nc2cc(F)c(CNS(C)(=O)=O)c(F)c2)n(-c2cccc(Cl)c2)n1` [Example B32, 1-[[5-tert-Butyl-2-(3-chlorophenyl)-2H-pyrazol-3-yl]-methyl]-3-[3,5-difluoro-4-(methanesulfonamido-methyl)-phenyl]-urea], the Ki stood at 2 nM.

As to `NS(=O)(=O)NCc1ccc(NC(=O)NCc2cc(C(F)(F)F)nn2-c2cccc(Cl)c2)cc1` [Example B35, 1-[[2-(3-Chlorophenyl)-5-(trifluoromethyl)-2H-pyrazol-3-yl]-methyl]-3-[4-[(sulfamoylamino)-methyl]-phenyl]-urea], the Ki was determined as 9 nM.

On to `CC(C)(C)c1cc(CNC(=O)Nc2ccc(CNS(N)(=O)=O)cc2)n(-c2cccc(Cl)c2)n1` [Example B36, 1-[[5-tert-Butyl-2-(3-chlorophenyl)-2H-pyrazol-3-yl]-methyl]-3-[4-[(sulfamoylamino)-methyl]-phenyl]-urea], for which the Ki is 6 nM.

As for `CS(=O)(=O)NCc1ccc(CC(=O)NCc2cc(C(F)(F)F)nn2-c2cccc(F)c2)cc1F` [Example B37, 2-[3-Fluoro-4-(methanesulfonamido-methyl)-phenyl]-N-[[2-(3-fluorophenyl)-5-(trifluoromethyl)-2H-pyrazol-3-yl]-methyl]-acetamide], the Ki stood at 46 nM.

`CN(C)Cc1ccc(NC(=O)NCc2cc(C(F)(F)F)nn2-c2cccc(Cl)c2)cc1F` [Example B38, 1-[[2-(3-Chlorophenyl)-5-(trifluoromethyl)-2H-pyrazol-3-yl]-methyl]-3-[4-(dimethylaminomethyl)-3-fluoro-phenyl]-urea]: the inhibition at 5 µM amounted to 18%.

With `NCc1ccc(NC(=O)NCc2cc(C(F)(F)F)nn2-c2cccc(Cl)c2)cc1F` [Example B39, 1-[4-(Aminomethyl)-3-fluoro-phenyl]-3-[[2-(3-chlorophenyl)-5-(trifluoromethyl)-2H-pyrazol-3-yl]-methyl]-urea], the inhibition at 5 µM turned out to be 37%.

Take `CC(C)(C)c1cc(CNC(=O)Nc2ccc(CN)c(F)c2)n(-c2cccc(Cl)c2)n1` [Example B40, 1-[4-(Aminomethyl)-3-fluoro-phenyl]-3-[[5-tert-butyl-2-(3-chlorophenyl)-2H-pyrazol-3-yl]-methyl]-urea]: the Ki is 92 nM.

Consider `NS(=O)(=O)NCc1ccc(NC(=O)NCc2cc(C(F)(F)F)nn2-c2cccc(Cl)c2)cc1F` [Example B41, 1-[[2-(3-Chlorophenyl)-5-(trifluoromethyl)-2H-pyrazol-3-yl]methyl]-3-[3-fluoro-4-[(sulfamoylamino)-methyl]-phenyl]-urea], for which the inhibition constant (Ki) stood at 74 nM.

Regarding `CC(C(=O)NCc1cc(C(F)(F)F)nn1-c1cccc(Cl)c1)c1ccc(CN)c(F)c1` (stereo not drawn) [Example B42, 2-[4-(Aminomethyl)-3-fluoro-phenyl]-N-[[2-(3-chlorophenyl)-5-(trifluoromethyl)-2H-pyrazol-3-yl]-methyl]-propionamide], the Ki was found to be 46 nM.

As to `CC(C(=O)NCc1cc(C(C)(C)C)nn1-c1cccc(C(F)(F)F)c1)c1ccc(CNS(C)(=O)=O)c(F)c1` (stereo not drawn) [Example B43, N-[[5-tert-Butyl-2-[3-(trifluoromethyl)phenyl]-2H-pyrazol-3-yl]-methyl]-2-[3-fluoro-4-(methanesulfonamido-methyl)-phenyl]-propionamide], the Ki was found to be 1 nM.

As to `CS(=O)(=O)NCc1ccc(NC(=O)NCc2cc(C(F)(F)F)nn2-c2cccc(F)c2)cc1` [Example B44, 1-[[2-(3-Fluorophenyl)-5-(trifluoromethyl)-2H-pyrazol-3-yl]-methyl]-3-[4-(methanesulfonamido-methyl)-phenyl]-urea], the inhibitory constant (Ki) came out at 44 nM.

As to `CC(C)(C)c1cc(CNC(=O)Nc2ccc(CNS(C)(=O)=O)cc2)n(-c2cccc(F)c2)n1` [Example B45, 1-[[5-tert-Butyl-2-(3-fluorophenyl)-2H-pyrazol-3-yl]-methyl]-3-[4-(methanesulfonamido-methyl)-phenyl]-urea], the Ki came out at 31 nM.

As to `CC(C)(C)c1cc(CNC(=O)Nc2ccc(CNS(N)(=O)=O)c(F)c2)n(-c2cccc(Cl)c2)n1` [Example B46, 1-[[5-tert-Butyl-2-(3-chlorophenyl)-2H-pyrazol-3-yl]-methyl]-3-[3-fluoro-4-[(sulfamoylamino)-methyl]-phenyl]-urea], the Ki turned out to be 9 nM.

As to `CS(=O)(=O)NCc1ccc(NC(=O)NCc2cc(C(F)(F)F)nn2-c2cccc(F)c2)cc1F` [Example B48, 1-[3-Fluoro-4-(methanesulfonamido-methyl)-phenyl]-3-[[2-(3-fluorophenyl)-5-(trifluoromethyl)-2H-pyrazol-3-yl]-methyl]-urea], the Ki is 40 nM.

With `CS(=O)(=O)NCc1ccc(NC(=O)NCc2cc(C(F)(F)F)nn2-c2ccc(F)c(F)c2)cc1F` [Example B49, 1-[[2-(3,4-Difluoro-phenyl)-5-(trifluoromethyl)-2H-pyrazol-3-yl]-methyl]-3-[3-fluoro-4-(methanesulfonamido-methyl)-phenyl]-urea], the Ki is 11 nM.

As for `CC(C)(C)c1cc(CNC(=O)Nc2ccc(CNS(C)(=O)=O)c(F)c2)n(-c2cccc(F)c2)n1` [Example B50, 1-[[5-tert-Butyl-2-(3-fluorophenyl)-2H-pyrazol-3-yl]-methyl]-3-[3-fluoro-4-(methanesulfonamido-methyl)-phenyl]-urea], the Ki worked out at 15 nM.

For the molecule `CC(C)(C)c1cc(CNC(=O)Nc2ccc(CNS(C)(=O)=O)c(F)c2)n(-c2ccc(F)c(Cl)c2)n1` [Example B51, 1-[[5-tert-Butyl-2-(3-chloro-4-fluoro-phenyl)-2H-pyrazol-3-yl]-methyl]-3-[3-fluoro-4-(methanesulfonamido-methyl)-phenyl]-urea], the Ki stood at 15 nM.

In the case of `CS(=O)(=O)NCc1ccc(NC(=O)NCc2cc(C(F)(F)F)nn2-c2cccc(Cl)c2)cc1F` [Example B52, 1-[[2-(3-Chlorophenyl)-5-(trifluoromethyl)-2H-pyrazol-3-yl]-methyl]-3-[3-fluoro-4-(methanesulfonamido-methyl)-phenyl]-urea], the inhibitory constant (Ki) worked out at 9 nM.
